Read-outs that look alike come from different tables or passages of the source. Marks after values point to notes of the source that are not given here.
Experiments:
[1] = test system: human leukemia cells (HL-60 cells); details: 4-day trial period, cited from earlier work
[2] = test system: human leukemia cells (HL-60 cells); assay: HL-60 cell differentiation, text summary over both NBT-reduction and phagocytosis assays; type: cell-based; details: HL-60 cell differentiation activity
Procedure: The assays were conducted as described by Ostrem et al (J. Biol. Chem. 262, 14164-14171, 1987), and by DeLuca et al (U. S. Patent 4,717,721). […] Even at doses as low as 10^-8M, this compound produced approximately 64-67% differentiation in the 4-day trial period in both the NBT-reduction and the phagocytosis assay. […] Thus, 1α-hydroxy-24-epi-vitamin D2 has little or no activity in promoting differentiation of promyelocytes to monocytes.

[3] = test system: human leukemia cells (HL-60 cells); details: cited from earlier work
[4] = test system: human leukemia cells (HL-60 cells); details: 4-day trial period, cited from earlier work; remark: listed apart in the source
[5] = test system: rats made osteoporotic by ovariectomy; assay: Restoration of bone mass (femur ash) in oophorectomized rats; type: in vivo, rat; details: for restoration of bone mass: result in words, previously tested, compared with the compound of the present study; for Total Femur Ash (mg ± SEM) / Ash (% ± SEM): oophorectomized rats, 325 pmol/day for 20 days by Alzet osmotic minipump; for Ash (% ± SEM): femur
From the text: At 13 weeks, the animals were either sham-operated or oophorectomized. They continued on the same diet for an additional 16 weeks. Ouring the last 20 days, the animals received the indicated dose of either 1α-hydroxyvitamin D2 or 24-epi-1α-hydroxyvitamin D2, in propylene glycol, delivered each day by Alzet osmotic minipump for a period of 20 days. The animals were killed and their femurs were used to determine total bone ash and percent ash. There were 6 animals in each group and the data are expressed as average ± standard error of the mean. Oophorectomy results in a lack of estrogen reminiscent of the menopausal state.

vitamin D-deficient rat [6] = details: cited from earlier work; for Ca Transport S/M Ratio: 20 h prior to sacrifice, vitamin D-free, low calcium diet
vitamin D-deficient rat [7] = details: cited from earlier work; for Bone Mobilization Serum Ca: 20 h prior to sacrifice, vitamin D-free, low calcium diet; for activity in mobilizing calcium from bone: result in words, animals on a low calcium diet

Compound | % Differentiation Phagocytosis ([1]; 1 x 10^-7 M) [%] | % Differentiation Phagocytosis ([1]; 1 x 10^-8 M) [%] | % Differentiation Phagocytosis ([1]; 2 x 10^-8 M) [%] | % Differentiation Phagocytosis ([1]; 5 x 10^-8 M) [%] | differentiation ([3]; 1-2 x 10^-8M) | differentiation ([3]; 10^-7M) | % Differentiation NBT Reduction ([4]; 1 x 10^-7 M) [%] | % Differentiation NBT Reduction ([4]; 1 x 10^-8 M) [%] | % Differentiation NBT Reduction ([4]; 2 x 10^-8 M) [%] | % Differentiation NBT Reduction ([4]; 5 x 10^-8 M) [%] | restoration of bone mass [5] | Ca Transport S/M Ratio (vitamin D-deficient rat [6]; 325 pmol) | Total Femur Ash (mg ± SEM) [5] [mg] | Ash (% ± SEM) [5] [%] | Bone Mobilization Serum Ca (vitamin D-deficient rat [7]; 325 pmol) | activity in mobilizing calcium from bone (vitamin D-deficient rat [7]) | also measured
C=C1/C(=C\C=C2/CCC[C@]3(C)[C@@H]([C@H](C)/C=C/[C@@H](C)C(C)(C)O)CC[C@@H]23)C[C@@H](O)C[C@@H]1O [1α,25-Dihydroxy-24-epi-vitamin D2, 1α,25-dihydroxy-24-epi-vitamin D2] | 81 ± 3 | 40 ± 3 | 49 ± 2 | 62 ± 3 | 40-50% | 80% | 80 ± 3 | 39 ± 3 | 48 ± 3 | 64 ± 3 |  |  |  |  |  |  | times less active than the 1α,25-dihydroxyvitamin D3 standard [2]: about 5; differentiation ([3]; 5 x 10^-8M): > 60%
C=C1/C(=C\C=C2/CCC[C@]3(C)[C@@H]([C@H](C)CCCC(C)(C)O)CC[C@@H]23)C[C@@H](O)C[C@@H]1O [1α,25-Dihydroxy-vitamin D3, 1α,25-dihydroxyvitamin D3] | 89 ± 3 | 67 ± 3 |  |  |  |  | 87 ± 2 | 64 ± 2 |  |  | restored some bone mass |  |  |  |  |  | differentiation ([3]; 10^-8M, 4-day trial period, both NBT-reduction and phagocytosis assay): 64-67%
C=C1/C(=C\C=C2/CCC[C@]3(C)[C@@H]([C@H](C)/C=C/[C@@H](C)C(C)C)CC[C@@H]23)C[C@@H](O)C[C@@H]1O [1α-Hydroxy-24-epi-vitamin D2, 24-epi-1α-hydroxyvitamin D2] | 16 ± 2 | 4 ± 2 | 6 ± 3 | 9 ± 1 | does not elicit a significant differentiation response | 16-20% | 22 ± 2 | 4 ± 2 | 6 ± 2 | 14 ± 2 |  | 4.3 ± 0.42^a | 400 | 60.5 ± 0.5 | 3.9 ± 0.39^b mg % | no activity | Ca Transport S/M Ratio (vitamin D-deficient rat [6]; 650 pmol): 4.4 ± 0.70^a; activity in stimulating intestinal calcium transport (vitamin D-deficient rat [6]; result in words, data of Table 1): high activity; Total Femur Ash (mg ± SEM) ([5]; listed as 24-epi-1α-OH-D2): 400 ± 16.4^d mg; Bone Mobilization Serum Ca (vitamin D-deficient rat [7]; 650 pmol): 4.1 ± 0.23^b mg %
C=C1/C(=C\C=C2/CCC[C@]3(C)[C@@H]([C@H](C)/C=C/[C@H](C)C(C)C)CC[C@@H]23)C[C@@H](O)C[C@@H]1O [1α-Hydroxy-vitamin D2, 1α-hydroxyvitamin D2] |  |  |  |  |  |  |  |  |  |  |  | 5.4 ± 0.37^a | 377 | 58.6 ± 0.55 | 5.3 ± 0.15^a mg % | strongly active | Total Femur Ash (mg ± SEM) ([5]; listed as 1α-OH-D2): 377 ± 15.2^c mg
C=C1/C(=C\C=C2/CCC[C@]3(C)[C@@H]([C@H](C)CCCC(C)C)CC[C@@H]23)C[C@@H](O)C[C@@H]1O [1α-hydroxyvitamin D3] |  |  |  |  |  |  |  |  |  |  | restored some bone mass |  |  |  |  |  | 
